This assay has as its system Mycobacterium tuberculosis H37Rv. The experiment in a line: Microtiter dilution MIC assay in GAST-Fe and 7H9-based media. The assay is classed as cell-based. The note with it: for MIC (Gast/Fe) Week 2: GAST-Fe medium pH 6.6, read after week 2; for MIC: Mycobacterium tuberculosis, H37RV; for MIC (Gast/Fe) Week 1: GAST-Fe medium pH 6.6, read after week 1.

Values after ≈ are worked out from the molar mass of the structure shown. Like-named read-outs stand apart in the source and are kept apart here.

For the compound `COc1cccc(NCc2ccc(Oc3ccccn3)cc2)c1` [Compound 2c, 3-methoxy-N-(4-(pyridin-2-yloxy)benzyl) aniline], the “MIC (Gast/Fe) Week 2” value came out at 37 µM (≈ 11.3 µg/mL). As for `Clc1cccc(NCc2ccc(Oc3ccccn3)cc2)c1` [Compound 2h, 3-chloro-N-(4-(pyridin-2-yloxy)benzyl) aniline], the “MIC (Gast/Fe) Week 2” value was found to be 40 µM (≈ 12.4 µg/mL). Still for that read-out and setting: the figure for `Clc1ccc(NCc2ccc(Oc3ccccn3)cc2)cc1` [Compound 2g, 4-chloro-N-(4-(pyridin-2-yloxy)benzyl) aniline] is 40 µM (≈ 12.4 µg/mL); for `Brc1cccc(NCc2ccc(Oc3ccccn3)cc2)c1` [Compound 2m, 3-bromo-N-(4-(pyridin-2-yloxy)benzyl) aniline] it is 35 µM (≈ 12.4 µg/mL). Consider `Oc1cc(Cl)ccc1Oc1ccc(Cl)cc1Cl` [Triclosan, 2,4,4׳- trichloro- 2׳- hydroxy diphenyl ether, reference compound], for which the MIC was determined as 43 µM (≈ 12.5 µg/mL) (pH 6.6, read-out: MIC (Gast/Fe) Week 1); 43 µM (≈ 12.5 µg/mL) (pH 6.6, read-out: MIC (Gast/Fe) Week 2); 22 µM (≈ 6.37 µg/mL) (read-out: MIC (7H9/ADC/Tween) Week 1); 43 µM (≈ 12.5 µg/mL) (read-out: MIC (7H9/ADC/Tween) Week 2).

For the compound `Clc1ccccc1NCc1ccc(Oc2ccccn2)cc1` [Compound 2i, 2-chloro-N-(4-(pyridin-2-yloxy)benzyl) aniline], the “MIC (Gast/Fe) Week 1” value is 20 µM (≈ 6.22 µg/mL) and the “MIC (Gast/Fe) Week 2” value was 20 µM (≈ 6.22 µg/mL). `Cc1ccc(NCc2ccc(Oc3ccccn3)cc2)cc1` [Compound 2d, 4-methyl-N-(4-(pyridin-2-yloxy)benzyl) aniline]: the “MIC (Gast/Fe) Week 1” value was 22 µM (≈ 6.39 µg/mL). For `c1ccc(NCc2ccc(Oc3ccccn3)cc2)cc1` [Compound 2a, N-(4-(pyridin-2-yloxy)benzyl) aniline], the “MIC (Gast/Fe) Week 2” value is 37 µM (≈ 10.2 µg/mL). The same measure, in the same setting: under `Fc1ccc(NCc2ccc(Oc3ccccn3)cc2)cc1` [Compound 2j, 4-fluoro-N-(4-(pyridin-2-yloxy)benzyl) aniline] stands 25 µM (≈ 7.36 µg/mL).
